Results reported in patent US6740664B2, “Methods for treating otic and ophthalmic infections” (Alcon, Inc., priority 1998, dated 2004).
Converted amounts (≈) assume the structure as drawn. Read-outs that look alike come from different tables or passages of the source.

Key:
Microbacterium otitidis = test: In vitro MIC by agar and broth dilution methods (NCCLS M7-A4), clinical isolates; assay type: cell-based
Protocol: (§1) The activity levels were determined as MIC (minimum inhibitory concentration) values. In order to compare the activity of the compounds of the present invention to other antibiotics, MIC values for representatives quinolones, aminoglycosides, β-lactams and other types of antibiotics were also determined. […] The MCC numbers (e.g., “MCC 10647”) represent separate clinical isolates of the two Microbacterium species tested.

Microbacterium alconae = test: as above; assay type: cell-based
Protocol: as §1

[1] = tested on: S. aureus/quinolone resistant; test: MIC90 against bacteria associated with otic, ophthalmic and nasal infections; assay type: cell-based
Text: (§2) The concentrations of the antibiotics of formula (I) in the compositions of the present invention will vary depending on the intended use of the compositions (e.g., treatment of existing infections or prevention of post-surgical infections), and the relative antimicrobial activity of the specific antibiotic selected. The antimicrobial activity of antibiotics is generally expressed as the minimum concentration required to inhibit the growth of a specified pathogen. This concentration is also referred to as the “minimum inhibitory concentration” or “MIC”. The term “MIC90” refers to the minimum concentration of antibiotic required to inhibit the growth of ninety percent (90%) of the strains of a species. The concentration of an antibiotic required to totally kill a specified bacteria is referred to as the “minimum bactericidal concentration” or “MBC”.

[2] = tested on: S. pneumoniae/penicillin sensitive; test: as above; assay type: cell-based
Text: as §2

[3] = tested on: H influenzae/β-lactamase negative; test: as above; assay type: cell-based
Text: as §2

[4] = tested on: S. epidermidis/methicillin sensitive; test: as above; assay type: cell-based
Text: as §2

P. aeruginosa = test: as above; assay type: cell-based
Text: as §2

[5] = tested on: H. influenzae/β-lactamase positive; test: as above; assay type: cell-based
Text: as §2

[6] = tested on: S. epidermidis/methicillin resistant; test: as above; assay type: cell-based
Text: as §2

[7] = tested on: S. pneumoniae/penicillin resistant; test: as above; assay type: cell-based
Text: as §2

[8] = tested on: S. aureus/methicillin sensitive; test: as above; assay type: cell-based
Text: as §2

[9] = tested on: S. aureus/methicillin resistant; test: as above; assay type: cell-based
Text: as §2

M. alconae = test: as above; assay type: cell-based, Microbacterium alconae
Text: as §2

M. otitidis = test: as above; assay type: cell-based, Microbacterium otitidis
Text: as §2

[10] = Microbacterium otitidis clinical isolate MCC 10647
[11] = Microbacterium otitidis clinical isolate MCC 10810
[12] = Microbacterium otitidis clinical isolate MCC 10990
[13] = Microbacterium otitidis clinical isolate MCC 11495
[14] = Microbacterium otitidis clinical isolate MCC 11676
[15] = Microbacterium alconae clinical isolate MCC 11316
[16] = Microbacterium alconae clinical isolate MCC 11558
[17] = Microbacterium alconae clinical isolate MCC 11639
[18] = Microbacterium alconae clinical isolate MCC 11653
[19] = Microbacterium alconae clinical isolate MCC 11699
[20] = Staphylococcus aureus, read-out: MIC90
[21] = Streptococcus pneumoniae, read-out: MIC90
[22] = Haemophilus influenzae, read-out: MIC90
[23] = Staphylococcus epidermidis, read-out: MIC90
[24] = Pseudomonas aeruginosa, read-out: MIC90

## Neomycin
Microbacterium otitidis; [10]
  minimum inhibitory concentration (MIC): 8.0 micrograms per milliliter
Microbacterium otitidis; [11]
  minimum inhibitory concentration (MIC): 2.0 micrograms per milliliter
Microbacterium otitidis; [12]
  minimum inhibitory concentration (MIC): 2.0 micrograms per milliliter
Microbacterium otitidis; [13]
  minimum inhibitory concentration (MIC): 8.0 micrograms per milliliter
Microbacterium otitidis; [14]
  minimum inhibitory concentration (MIC): 2.0 micrograms per milliliter
Microbacterium alconae; [15]
  minimum inhibitory concentration (MIC): 1.0 micrograms per milliliter
Microbacterium alconae; [16]
  minimum inhibitory concentration (MIC): 1.0 micrograms per milliliter
Microbacterium alconae; [17]
  minimum inhibitory concentration (MIC): 1.0 micrograms per milliliter
Microbacterium alconae; [18]
  minimum inhibitory concentration (MIC): 1.0 micrograms per milliliter
Microbacterium alconae; [19]
  minimum inhibitory concentration (MIC): 1.0 micrograms per milliliter

## COc1c(N2CCNC(C)C2)c(F)cc2c(=O)c(C(=O)O)cn(C3CC3)c12 (centres unmarked) [Gatifloxacin]
[1]; [20]
  MIC90: 8 mg/L (≈ 21.3 µM)
[2]; [21]
  MIC90: 0.25 mg/L (≈ 0.666 µM)
[3]; [22]
  MIC90: 0.06 mg/L (≈ 0.16 µM)
[4]; [23]
  MIC90: 0.5 mg/L (≈ 1.33 µM)
P. aeruginosa; [24]
  MIC90: 2 mg/L (≈ 5.33 µM)
[5]; [22]
  MIC90: 0.06 mg/L (≈ 0.16 µM)
[6]; [23]
  MIC90: 4 mg/L (≈ 10.7 µM)
[7]; [21]
  MIC90: 0.25 mg/L (≈ 0.666 µM)
[8]; [20]
  MIC90: 0.25 mg/L (≈ 0.666 µM)
[9]; [20]
  MIC90: 8 mg/L (≈ 21.3 µM)

## Polymyxin B
Microbacterium otitidis; [11]
  minimum inhibitory concentration (MIC): 260 micrograms per milliliter
Microbacterium otitidis; [12]
  minimum inhibitory concentration (MIC): 260 micrograms per milliliter
Microbacterium otitidis; [14]
  minimum inhibitory concentration (MIC): 16 micrograms per milliliter
Microbacterium alconae; [17]
  minimum inhibitory concentration (MIC): 16 micrograms per milliliter
Microbacterium alconae; [18]
  minimum inhibitory concentration (MIC): 16 micrograms per milliliter
Microbacterium alconae; [19]
  minimum inhibitory concentration (MIC): 16 micrograms per milliliter

## Moxifloxacin
M. alconae
  MIC90: 0.25 micrograms per milliliter
M. otitidis
  MIC90: 2.0 micrograms per milliliter
[1]
  MIC90: 4.0 micrograms per milliliter
[2]
  MIC90: 0.25 micrograms per milliliter
[3]
  MIC90: 0.06 micrograms per milliliter
[4]
  MIC90: 0.25 micrograms per milliliter
P. aeruginosa
  MIC90: 8.0 micrograms per milliliter
[5]
  MIC90: 0.06 micrograms per milliliter
[6]
  MIC90: 4.0 micrograms per milliliter
[7]
  MIC90: 0.25 micrograms per milliliter
[8]
  MIC90: 0.13 micrograms per milliliter
[9]
  MIC90: 4.0 micrograms per milliliter

## Gentamicin
Microbacterium otitidis; [10]
  minimum inhibitory concentration (MIC): 8.0 micrograms per milliliter
Microbacterium otitidis; [11]
  minimum inhibitory concentration (MIC): 4.0 micrograms per milliliter
Microbacterium otitidis; [12]
  minimum inhibitory concentration (MIC): 4.0 micrograms per milliliter
Microbacterium otitidis; [13]
  minimum inhibitory concentration (MIC): 16 micrograms per milliliter
Microbacterium otitidis; [14]
  minimum inhibitory concentration (MIC): 4.0 micrograms per milliliter
Microbacterium alconae; [15]
  minimum inhibitory concentration (MIC): 2.0 micrograms per milliliter
Microbacterium alconae; [16]
  minimum inhibitory concentration (MIC): 2.0 micrograms per milliliter
Microbacterium alconae; [17]
  minimum inhibitory concentration (MIC): 2.0 micrograms per milliliter
Microbacterium alconae; [18]
  minimum inhibitory concentration (MIC): 2.0 micrograms per milliliter
Microbacterium alconae; [19]
  minimum inhibitory concentration (MIC): 2.0 micrograms per milliliter

## Grepafloxacin
[1]
  MIC90: 0.13 micrograms per milliliter
[2]
  MIC90: 0.25 micrograms per milliliter
[3]
  MIC90: 0.008 micrograms per milliliter
[4]
  MIC90: 0.13 micrograms per milliliter
P. aeruginosa
  MIC90: 8.0 micrograms per milliliter
[5]
  MIC90: 0.008 micrograms per milliliter
[6]
  MIC90: 0.13 micrograms per milliliter
[7]
  MIC90: 0.25 micrograms per milliliter
[8]
  MIC90: 0.13 micrograms per milliliter
[9]
  MIC90: 0.13 micrograms per milliliter

## N[C@@H]1[C@H]2CN(c3nc4c(cc3F)c(=O)c(C(=O)O)cn4-c3ccc(F)cc3F)C[C@@H]12 [Trovafloxacin]
[1]; [20]
  MIC90: 4 mg/L (≈ 9.61 µM)
[2]; [21]
  MIC90: 0.25 mg/L (≈ 0.6 µM)
[3]; [22]
  MIC90: 0.03 mg/L (≈ 0.0721 µM)
[4]; [23]
  MIC90: 0.06 mg/L (≈ 0.144 µM)
P. aeruginosa; [24]
  MIC90: 2 mg/L (≈ 4.8 µM)
[5]; [22]
  MIC90: 0.03 mg/L (≈ 0.0721 µM)
[6]; [23]
  MIC90: 4 mg/L (≈ 9.61 µM)
[7]; [21]
  MIC90: 0.25 mg/L (≈ 0.6 µM)
[8]; [20]
  MIC90: 0.03 mg/L (≈ 0.0721 µM)
[9]; [20]
  MIC90: 2 mg/L (≈ 4.8 µM)
